Experimental data reported in the supplement of paper PMC10307832.

Key:
Test in all cases: relative viability (nuclei count vs DMSO), 5 days (fraction); higher = more cells survive
[1] = tested on: NCI-H1299
Summary of the method: (§1)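 Lung cancer cell lines in 1536-well plates were dosed by pin tool the day after seeding, either with one drug alone or with a fixed anchor-drug dose plus five library-drug doses (not always all listed) in √10 steps. After 5 days, cells were fixed and their nuclei stained in one step (final 0.05% Triton X-100, 1% formaldehyde, 1 ug/ml Hoechst), then counted on 4× images. Relative viability is the nuclei count in treated wells divided by that in vehicle wells. Values are medians of duplicate plates.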

[2] = tested on: PC-3 [JPC-3]
Summary of the method: as §1

[3] = tested on: EBC-1
Summary of the method: as §1

[4] = tested on: IA-LM
Summary of the method: as §1

[5] = tested on: NCI-H1651
Summary of the method: as §1

[6] = tested on: NCI-H1944
Summary of the method: as §1

[7] = tested on: RERF-LC-KJ
Summary of the method: as §1

[8] = tested on: Calu-6
Summary of the method: as §1

[9] = tested on: A549
Summary of the method: as §1

[10] = tested on: NCI-H838
Summary of the method: as §1

[11] = tested on: NCI-H1703
Summary of the method: as §1

[12] = tested on: NCI-H520
Summary of the method: as §1

[13] = tested on: NCI-H650
Summary of the method: as §1

`Cc1sc2c(c1C)C(c1ccc(Cl)cc1)=N[C@@H](CC(=O)OC(C)(C)C)c1nnc(C)n1-2` [JQ1] + CC1(C)CCC(c2ccc(Cl)cc2)=C(CN2CCN(c3ccc(C(=O)NS(=O)(=O)c4ccc(N[C@H](CCN5CCOCC5)CSc5ccccc5)c(S(=O)(=O)C(F)(F)F)c4)cc3)CC2)C1 [Navitoclax] (partner 0.5 µM) showed a relative viability ([1]; first compound 0.04 µM) of 1.02, a relative viability ([1]; first compound 0.1265 µM) of 0.92 and a relative viability ([1]; first compound 0.4 µM) of 0.933. The relative viability ([1]; first compound 1.265 µM) was 0.591, the relative viability ([1]; first compound 4 µM) was 0.419 and the relative viability ([2]; first compound 0.04 µM) was 0.781. It also gave a relative viability ([2]; first compound 0.1265 µM) of 0.877, a relative viability ([2]; first compound 0.4 µM) of 0.942 and a relative viability ([2]; first compound 1.265 µM) of 0.644. The relative viability ([2]; first compound 4 µM) was 0.499, the relative viability ([3]; first compound 0.04 µM) was 0.389 and the relative viability ([3]; first compound 0.1265 µM) was 0.165. The relative viability ([3]; first compound 0.4 µM) was 0.174, the relative viability ([3]; first compound 1.265 µM) was 0.136 and the relative viability ([3]; first compound 4 µM) was 0.125. For the same molecule, the relative viability ([4]; first compound 0.04 µM) was 0.745, the relative viability ([4]; first compound 0.1265 µM) was 0.294 and the relative viability ([4]; first compound 0.4 µM) was 0.126. For the same molecule, the relative viability ([4]; first compound 1.265 µM) was 0.0769, the relative viability ([4]; first compound 4 µM) was 0.0558 and the relative viability ([5]; first compound 0.04 µM) was 0.928. For the same molecule, the relative viability ([5]; first compound 0.1265 µM) was 0.819, the relative viability ([5]; first compound 0.4 µM) was 0.701 and the relative viability ([5]; first compound 1.265 µM) was 0.525. The relative viability ([5]; first compound 4 µM) was 0.439, the relative viability ([6]; first compound 0.04 µM) was 1.02 and the relative viability ([6]; first compound 0.1265 µM) was 0.922. The relative viability ([6]; first compound 0.4 µM) was 1.07, the relative viability ([6]; first compound 1.265 µM) was 0.762 and the relative viability ([6]; first compound 4 µM) was 0.617. For the same molecule, the relative viability ([7]; first compound 0.04 µM) was 0.867, the relative viability ([7]; first compound 0.1265 µM) was 1.06 and the relative viability ([7]; first compound 0.4 µM) was 0.981. It also gave a relative viability ([7]; first compound 1.265 µM) of 0.275, a relative viability ([7]; first compound 4 µM) of 0.33 and a relative viability ([8]; first compound 0.04 µM) of 0.821. It also gave a relative viability ([8]; first compound 0.1265 µM) of 0.757, a relative viability ([8]; first compound 0.4 µM) of 0.792 and a relative viability ([8]; first compound 1.265 µM) of 0.481. For the same molecule, the relative viability ([8]; first compound 4 µM) was 0.309, the relative viability ([9]; first compound 0.04 µM) was 1.27 and the relative viability ([9]; first compound 0.1265 µM) was 1.06. It also gave a relative viability ([9]; first compound 0.4 µM) of 1.13, a relative viability ([9]; first compound 1.265 µM) of 0.702 and a relative viability ([9]; first compound 4 µM) of 0.313. The relative viability ([10]; first compound 0.04 µM) was 1.1, the relative viability ([10]; first compound 0.1265 µM) was 0.592 and the relative viability ([10]; first compound 0.4 µM) was 0.662. The relative viability ([10]; first compound 1.265 µM) was 0.355, the relative viability ([10]; first compound 4 µM) was 0.247 and the relative viability ([11]; first compound 0.04 µM) was 1.27. For the same molecule, the relative viability ([11]; first compound 0.1265 µM) was 0.637, the relative viability ([11]; first compound 0.4 µM) was 0.928 and the relative viability ([11]; first compound 1.265 µM) was 0.405. The relative viability ([11]; first compound 4 µM) was 0.309, the relative viability ([12]; first compound 0.04 µM) was 1.1 and the relative viability ([12]; first compound 0.1265 µM) was 1.19. The relative viability ([12]; first compound 0.4 µM) was 0.905, the relative viability ([12]; first compound 1.265 µM) was 0.404 and the relative viability ([12]; first compound 4 µM) was 0.297.

With `Cc1sc2c(c1C)C(c1ccc(Cl)cc1)=N[C@@H](CC(=O)OC(C)(C)C)c1nnc(C)n1-2` [JQ1] + CC(C)C[C@H](NC(=O)[C@H](Cc1ccccc1)NC(=O)c1cnccn1)B(O)O [Bortezomib] (partner 0.002 µM) the relative viability ([1]; first compound 0.04 µM) was 1.03, the relative viability ([1]; first compound 0.1265 µM) was 0.924 and the relative viability ([1]; first compound 0.4 µM) was 0.963. For the same molecule, the relative viability ([1]; first compound 1.265 µM) was 0.499, the relative viability ([1]; first compound 4 µM) was 0.363 and the relative viability ([2]; first compound 0.04 µM) was 0.845. It also gave a relative viability ([2]; first compound 0.1265 µM) of 0.81, a relative viability ([2]; first compound 0.4 µM) of 0.977 and a relative viability ([2]; first compound 1.265 µM) of 0.675. The relative viability ([2]; first compound 4 µM) was 0.352, the relative viability ([13]; first compound 0.04 µM) was 0.742 and the relative viability ([13]; first compound 0.1265 µM) was 0.351. It also gave a relative viability ([13]; first compound 0.4 µM) of 0.432, a relative viability ([13]; first compound 1.265 µM) of 0.183 and a relative viability ([13]; first compound 4 µM) of 0.184. For the same molecule, the relative viability ([3]; first compound 0.04 µM) was 0.451, the relative viability ([3]; first compound 0.1265 µM) was 0.245 and the relative viability ([3]; first compound 0.4 µM) was 0.219. For the same molecule, the relative viability ([3]; first compound 1.265 µM) was 0.168, the relative viability ([3]; first compound 4 µM) was 0.19 and the relative viability ([4]; first compound 0.04 µM) was 0.643. For the same molecule, the relative viability ([4]; first compound 0.1265 µM) was 0.428, the relative viability ([4]; first compound 0.4 µM) was 0.0917 and the relative viability ([4]; first compound 1.265 µM) was 0.0837. For the same molecule, the relative viability ([4]; first compound 4 µM) was 0.0676, the relative viability ([5]; first compound 0.04 µM) was 0.919 and the relative viability ([5]; first compound 0.1265 µM) was 0.781. For the same molecule, the relative viability ([5]; first compound 0.4 µM) was 0.842, the relative viability ([5]; first compound 1.265 µM) was 0.9 and the relative viability ([5]; first compound 4 µM) was 0.635. For the same molecule, the relative viability ([7]; first compound 0.04 µM) was 1.17, the relative viability ([7]; first compound 0.1265 µM) was 1.11 and the relative viability ([7]; first compound 0.4 µM) was 1.13. The relative viability ([7]; first compound 1.265 µM) was 0.52, the relative viability ([7]; first compound 4 µM) was 0.415 and the relative viability ([8]; first compound 0.04 µM) was 1.04. The relative viability ([8]; first compound 0.1265 µM) was 0.931, the relative viability ([8]; first compound 0.4 µM) was 0.815 and the relative viability ([8]; first compound 1.265 µM) was 0.663. For the same molecule, the relative viability ([8]; first compound 4 µM) was 0.391, the relative viability ([10]; first compound 0.04 µM) was 0.69 and the relative viability ([10]; first compound 0.1265 µM) was 0.426. It also gave a relative viability ([10]; first compound 0.4 µM) of 0.31, a relative viability ([10]; first compound 1.265 µM) of 0.208 and a relative viability ([10]; first compound 4 µM) of 0.154. It also gave a relative viability ([11]; first compound 0.04 µM) of 0.248, a relative viability ([11]; first compound 0.1265 µM) of 0.206 and a relative viability ([11]; first compound 0.4 µM) of 0.19. For the same molecule, the relative viability ([11]; first compound 1.265 µM) was 0.122, the relative viability ([11]; first compound 4 µM) was 0.102 and the relative viability ([12]; first compound 0.04 µM) was 0.527. For the same molecule, the relative viability ([12]; first compound 0.1265 µM) was 0.242, the relative viability ([12]; first compound 0.4 µM) was 0.157 and the relative viability ([12]; first compound 1.265 µM) was 0.167. For the same molecule, the relative viability ([12]; first compound 4 µM) was 0.136.
